# Publication PMC9928118, “Funneling modulatory peptide design with generative models: Discovery and characterization of disruptors of calcineurin protein-protein interactions” (PLOS Computational Biology, 2023)
# Tested on: GST-tagged Cn
# Test: PEPperPRINT peptide microarray binding assay with GST-tagged Cn
# Source text: We then estimated in-silico the binding strength of the various peptides to Cn by template-based docking followed by flexible backbone refinement using Modeller and PepCrawler (Figs 4 and S4). In parallel, we performed a medium-throughput qualitative binding assay using a PEPperPRINT peptide microarray to evaluate the direct binding of Cn to selected peptides (Figs 4 and S5, S3 Data).
# Fig 4 Medium-throughput filtering by structural modeling and microarray screening. (a) Depiction of the structural modeling protocol: after alignment to the known PxIxIT binding site, an efficient flexible backbone structure refinement algorithm is applied to estimate the docking energy. […] (c) Coefficients of the equivalent single-site model fitted by sparse linear regression, shown in weight logo representation. […] Colors indicate physical property (black = hydrophobic, red = negatively charged, etc.). (d) Per-gene distribution of docking scores across natural fragments (lower is better). […] (e) Overview of the microarray screening. Peptides are printed on the chip (two circles per peptide). After pouring of Cn and subsequent washing, fluorescent-tagged, a Cn-targeting antibody is overlaid and an image is taken. Fluorescent spots indicate strong Cn binders. (f) Scatter plot of the sequence likelihood (normalized by length, higher is better) against fluorescence level (higher is better, see Methods for details of the data analysis).
# In parallel, selected peptides were tested for Cn binding on a chip microarray (PEPperPRINT). 786 peptides were printed on the chip and were incubated with GST-tagged Cn overnight at 4°C. Following extensive washing, binding was detected by applying a fluorescently labeled (Alexa-Fluor 647) GST antibody. […] The experiment was repeated five times, and Z-normalized fluorescence levels were determined following post-processing of the raw data (Methods, S5A, S5B and S5C Fig).
# The peptide array was prepared as a custom array pepper chip (PEPperPRINT). For binding detection, 1mg/ml GST-tagged Cn was incubated overnight on the microarray at 4°C. Following extensive washing, fluorescently labeled (Alexa-Fluor 647) GST-antibody. […] The experiment was repeated five times. Each scan was analyzed as follows: a grid was overlaid using the border HA markers to determine regions of interest (ROI) for each peptide (two ROIs per peptide) and the logarithm of the average fluorescence intensity was computed for each ROI. […] To remove spatial artifacts, a position-dependent baseline fluorescence was fitted using a second-order polynomial, and subtracted to the fluorescence. Fluorescence levels were next averaged over the two ROI for each peptide and Z-normalized. […] The Z-scores were averaged over the five repetitions to yield one fluorescence score per peptide.
# [1] = GST-tagged Cn, max over the chip locations
# [2] = GST-tagged Cn, mean over the chip locations
# [3] = max over the chip locations listed for the peptide (two spots)
# [4] = mean over the chip locations listed for the peptide (two spots)
# [5] = GST-tagged Cn, max over the chip spots listed under Location on chip
# [6] = GST-tagged Cn, mean over the chip spots listed under Location on chip
# [7] = GST-tagged Cn, max over the spots named in Location on chip
# [8] = GST-tagged Cn, mean over the spots named in Location on chip
# [9] = max over the spots listed under Location on chip
# [10] = mean over the spots listed under Location on chip
# [11] = GST-tagged Cn, max over the spots on the chip (two locations)
# [12] = GST-tagged Cn, mean over the spots on the chip (two locations)
sequence,measurement,setting,value
TFHREPQNRLYVLSAV [SeqRBM_456],Chip Fluorescence (max),[1],0.238
same,Chip Fluorescence (mean),[2],-1.007
KGCAAPAISIDFAPIN [SeqRBM_541],Chip Fluorescence (max),[3],6.269
same,Chip Fluorescence (mean),[4],0.8691
NGPGTPSRQGQPAAPS [SeqRTS1_Penicillium_nalgiovense],Chip Fluorescence (max),[5],0.9409
same,Chip Fluorescence (mean),[6],-0.6593
SAASFRIKQIEFMVSA [Seqshuffled_4815],Chip Fluorescence (max),[5],0.7621
same,Chip Fluorescence (mean),[6],-0.8277
TFWTNPQYRIKVTDPD [SeqRBMlowT_12],Chip Fluorescence (max),[1],-0.2746
same,Chip Fluorescence (mean),[2],-1.188
LNLKIPTIAKADITAT [SeqRBM_4458],Chip Fluorescence (max),[7],1.846
same,Chip Fluorescence (mean),[8],-0.3422
TFWTNPQFKITLEEPD [SeqRBMlowT_951],Chip Fluorescence (max),[9],2.6
same,Chip Fluorescence (mean),[10],0.9758
DVSDSPDVDLKIPQAR [SeqRBM_5022],Chip Fluorescence (max),[5],0.6546
same,Chip Fluorescence (mean),[6],-0.1589
TFWSNPQFRITLEDPD [SeqRBMlowT_45],Chip Fluorescence (max),[3],4.041
same,Chip Fluorescence (mean),[4],0.007175
VSLKIPGSSAIDLTAS [SeqFLNA_Trichinella_nativa],Chip Fluorescence (max),[1],-0.0417
same,Chip Fluorescence (mean),[2],-0.9527
ATSGTFPQTDGSHKKQ [SeqRBMlowT_7701],Chip Fluorescence (max),[1],-0.3986
same,Chip Fluorescence (mean),[2],-1.022
NKLKIPHQLSQPINDH [SeqRBM_2163],Chip Fluorescence (max),[9],2.778
same,Chip Fluorescence (mean),[10],0.1403
KAYMSPFMSFIDGGRR [SeqRBMlowT_6614],Chip Fluorescence (max),[9],2.798
same,Chip Fluorescence (mean),[10],1.173
RTYINPFMQFTDGGRF [SeqRBMlowT_552],Chip Fluorescence (max),[9],2.5867
same,Chip Fluorescence (mean),[10],0.5553
GHSHNPSITITFAEAE [SeqRBM_9189],Chip Fluorescence (max),[3],4.764
same,Chip Fluorescence (mean),[4],1.127
PLGTQPGIVVHVCELN [SeqRBMlowT_356],Chip Fluorescence (max),[3],4.334
same,Chip Fluorescence (mean),[4],3.231
TFWTNPQYKVKLEDPD [SeqRBMlowT_2919],Chip Fluorescence (max),[5],0.9474
same,Chip Fluorescence (mean),[6],0.1413
GELAIKNMKPWDVGGY [SeqRBM_3830],Chip Fluorescence (max),[9],3.053
same,Chip Fluorescence (mean),[10],1.402
TFWTNPQYRLKVTDPD [SeqRBMlowT_5581],Chip Fluorescence (max),[9],3.3
same,Chip Fluorescence (mean),[10],1.547
GGPGTPGRQGQPLAPS [SeqRBMlowT_7795],Chip Fluorescence (max),[7],1.388
same,Chip Fluorescence (mean),[8],-0.6767
STSSLPTFSFSTPPPT [SeqRBMlowT_1617],Chip Fluorescence (max),[11],1.022
same,Chip Fluorescence (mean),[12],-1.34
ADEAQPGIVVHVCELP [SeqRBMlowT_119],Chip Fluorescence (max),[7],1.734
same,Chip Fluorescence (mean),[8],-0.1242
PSMAAPAINIDFAPTN [SeqRBMlowT_2463],Chip Fluorescence (max),[5],0.9672
same,Chip Fluorescence (mean),[6],0.03589
TFWTNPQYKITLEEED [SeqRBMlowT_3204],Chip Fluorescence (max),[9],3.2
same,Chip Fluorescence (mean),[10],1.112
QASKNSNMQRSFHVNA [Seqshuffled_9426],Chip Fluorescence (max),[5],0.8318
same,Chip Fluorescence (mean),[6],-0.05808
QSRSCSHPNRSPERVT [SeqRBM_5791],Chip Fluorescence (max),[1],-0.7515
same,Chip Fluorescence (mean),[2],-1.165
LKDEVPEVRLNIISNL [SeqRCN1_Ramazzottius_varieornatus],Chip Fluorescence (max),[5],0.4089
same,Chip Fluorescence (mean),[6],-0.7319
GTSGGFPQTDRSHKKQ [SeqRBM_413],Chip Fluorescence (max),[3],3.637
same,Chip Fluorescence (mean),[4],-0.2581
STSSLPTFSFSSPAPS [SeqRBMlowT_801],Chip Fluorescence (max),[1],-0.2979
same,Chip Fluorescence (mean),[2],-1.46
MTPAAPIVRLHIPSSV [SeqRBM_8521],Chip Fluorescence (max),[5],0.4752
same,Chip Fluorescence (mean),[6],-0.03556
HSKSIPKFSFQSPVHH [SeqRBMlowT_1680],Chip Fluorescence (max),[1],0.06895
same,Chip Fluorescence (mean),[2],-0.7142
KAYMCPFMQFIEGGRR [SeqSFB3_Pan_troglodytes],Chip Fluorescence (max),[5],0.9778
same,Chip Fluorescence (mean),[6],-1.603
TYWTNPQFRVTLEDPD [SeqRBMlowT_4395],Chip Fluorescence (max),[9],3.405
same,Chip Fluorescence (mean),[10],0.7303
TLWTNPQYHITLPEED [SeqRBM_3002],Chip Fluorescence (max),[9],3.2575
same,Chip Fluorescence (mean),[10],0.9321
ADEANPEITVTPAELP [SeqRBMlowT_396],Chip Fluorescence (max),[5],0.3864
same,Chip Fluorescence (mean),[6],-0.7137
PAGTGVGIVITVTEAE [SeqRBMlowT_157],Chip Fluorescence (max),[11],1.221
same,Chip Fluorescence (mean),[12],-0.03937
GDYMQGTLQAETGEHD [Seqshuffled_9624],Chip Fluorescence (max),[7],1.494
same,Chip Fluorescence (mean),[8],0.7951
SSKSLPTFSFSSPVSH [SeqRBMlowT_6060],Chip Fluorescence (max),[7],1.331
same,Chip Fluorescence (mean),[8],0.1061
SQMAAPAINIDFAPTN [SeqRBMlowT_314],Chip Fluorescence (max),[11],0.998
same,Chip Fluorescence (mean),[12],-0.1818
LTWTSLRYSVNDDKNT [Seqshuffled_9363],Chip Fluorescence (max),[3],15.2815
same,Chip Fluorescence (mean),[4],4.411
AHVSVPVIVVSPGETI [SeqRBM_3486],Chip Fluorescence (max),[1],0.2381
same,Chip Fluorescence (mean),[2],-0.4942
SSQGSSRPARSPERTV [SeqRBM_2387],Chip Fluorescence (max),[5],0.4699
same,Chip Fluorescence (mean),[6],-0.1808
SAGAGVQIVITVTEAE [SeqRBMlowT_1437],Chip Fluorescence (max),[11],1.271
same,Chip Fluorescence (mean),[12],-0.4781
VEYDKVWKVAQFVNKC [Seqrandom_9995],Chip Fluorescence (max),[5],0.5427
same,Chip Fluorescence (mean),[6],-0.6454
GTETTPSVVVHVCEDD [SeqRBMlowT_112],Chip Fluorescence (max),[3],4.01
same,Chip Fluorescence (mean),[4],1.52
HVSSSPRIAITPTQHR [SeqRBMlowT_8885],Chip Fluorescence (max),[7],1.646
same,Chip Fluorescence (mean),[8],-0.634
KVRTALYFTWNLTERG [Seqshuffled_9698],Chip Fluorescence (max),[11],1.275
same,Chip Fluorescence (mean),[12],0.3801
RNPGQALLTLRGHKKQ [SeqRBMlowT_5826],Chip Fluorescence (max),[11],1.2153
same,Chip Fluorescence (mean),[12],0.1411
DSLEGATIVITLTEGK [SeqRBM_8933],Chip Fluorescence (max),[3],3.74
same,Chip Fluorescence (mean),[4],0.5914
RTYINPFMKFTIWGTQ [SeqRBM_6386],Chip Fluorescence (max),[7],1.359
same,Chip Fluorescence (mean),[8],-0.5299
LSDNRPNVRMEAPMVQ [SeqRBM_9917],Chip Fluorescence (max),[1],0.09814
same,Chip Fluorescence (mean),[2],-0.3526
HSKFIPKLSIQSPVLH [SeqRBMlowT_6746],Chip Fluorescence (max),[7],1.7974
same,Chip Fluorescence (mean),[8],-0.2423
NGPSTPTKQGQPMAPS [SeqRBM_8324],Chip Fluorescence (max),[5],0.6682
same,Chip Fluorescence (mean),[6],-0.9835
TFWTNPQFKVTLEEPD [SeqRBMlowT_2957],Chip Fluorescence (max),[11],1.208
same,Chip Fluorescence (mean),[12],-0.4648
VALVIRSTDKDDVGNY [SeqCEACAM5_Bactrocera_latifrons],Chip Fluorescence (max),[9],3.268
same,Chip Fluorescence (mean),[10],1.368
PNLYENTLGIEQFTLS [SeqRBM_7749],Chip Fluorescence (max),[7],1.865
same,Chip Fluorescence (mean),[8],0.2079
ATDTTPSVVVHVCESD [SeqRCN1_Macaca_mulatta],Chip Fluorescence (max),[11],1.045
same,Chip Fluorescence (mean),[12],0.2093
PSEDQPGIVVHVCEED [SeqRBMlowT_124],Chip Fluorescence (max),[3],4.395
same,Chip Fluorescence (mean),[4],0.1564
TFWTNPQYRITVTDED [SeqRBMlowT_7478],Chip Fluorescence (max),[5],0.9083
same,Chip Fluorescence (mean),[6],-0.5067
ASEANPEITITPAELP [SeqRBMlowT_410],Chip Fluorescence (max),[11],1.116
same,Chip Fluorescence (mean),[12],-0.403
GGPGTPGRQGQHLAPS [SeqRBMlowT_7794],Chip Fluorescence (max),[1],0.3619
same,Chip Fluorescence (mean),[2],-1.021
VQLKIPQLRVSSVSKP [SeqLCORL_2_Sus_scrofa],Chip Fluorescence (max),[5],0.981
same,Chip Fluorescence (mean),[6],-0.5484
TFWSNPQFTITLAEPD [SeqRBMlowT_8092],Chip Fluorescence (max),[5],0.3751
same,Chip Fluorescence (mean),[6],-0.8998
TFWTNPQYRITVTDAD [SeqRBMlowT_620],Chip Fluorescence (max),[9],2.815
same,Chip Fluorescence (mean),[10],0.3496
LNLKIPIVLLNIISAI [SeqRBM_9387],Chip Fluorescence (max),[7],1.375
same,Chip Fluorescence (mean),[8],0.2818
HSKLIPKLSVQSPVHH [SeqRBMlowT_1714],Chip Fluorescence (max),[7],1.671
same,Chip Fluorescence (mean),[8],-0.5381
